Reference: patent publication US8143212B2 (Vicuron Pharmaceuticals Inc., priority 2002, dated 2012)
≈ marks a conversion by molar mass, not a printed value. Like-named read-outs stand apart in the source and are kept apart here.

Assays:
[1] = test system: E faecalis; test: MIC, microbiological activity (Table 3); format: cell-based; settings: read-out: MIC
[2] = test system: S. aureus; test: Murine thigh-infection model (time kill, dosing regimen, PK/PD; Tables 31, 32); settings: for 1 log kill mg/kg / 2 log kill mg/kg: total dose over 6 days;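 on all read-outs here: mouse thigh infection, bacterial counts per thigh after therapy, dose-response curves fitted with a maximum effect model to give static and 1 or 2 log kill exposures, mean of 4 thighs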
Experimental: The murine thigh-infection model was used for all organisms throughout the various studies. In this well-established model, approximately 10^6 Cfu of the study organisms are injected into one or both thighs (in 0.1 ml) two hours before starting therapy. The number of organisms in the thigh at the start of therapy in the following studies varied from 10^7.15-7.59 cfu/thigh.
Each point represents the mean of 4 thighs. Five dose levels, ranging 16-fold were used. The dose levels used in the study against S. aureus ranged from 5 to 80 mg/kg.
In these studies, multiple dosing regimens varying the dose and dosage interval were administered intraperitoneally in 0.2 ml volumes to groups of mice for 144 h (6 days). The dosing intervals chosen were 12, 24, 36, and 72 hours. Five different doses (two-fold increases) were used. Study against S. aureus utilized total dose (mg/kg/6d) levels ranging from 30 to 480 mg/kg/6d. […] Each point represents the mean of 4 thighs.
Each of the dose-response curves was also mathematically characterized using a maximum effect model. […] From these parameters we could then calculate the dose required to produce a net bacteriostatic effect over the 144 hour treatment period as well as the doses necessary to produce a 1 and 2 log-reduction in organism burden.
We determined which PK/PD parameter correlated best with efficacy by relating the number of bacteria in thigh at the end of 144 hours of therapy with [1] the peak/MIC ratio, [2] the AUC/MIC ratio, and [3] the percentage of the dosing interval that serum levels exceed the MIC for each of the dosage regimens studied. The PK/PD parameter values for those doses not specifically studied were extrapolated from the values of the nearest studied doses. […] Each point represents the mean of four thighs. […] The data illustrated in these figures were also analyzed by the same maximum dose-response model mentioned above, except that the different PK/PD parameters were used in place of the dose. The R^2 represents the coefficient of determination observed for the relationship between efficacy and each PK/PD parameter.

[3] = Mean ± SD of S. aureus strains, q 24 h regimen
[4] = Mean ± SD of S. aureus strains, q 72 h regimen

CN[C@H]1C(=O)N[C@@H]2Cc3ccc(cc3)Oc3cc4cc(c3O[C@@H]3O[C@H](C(=O)O)[C@@H](O)[C@H](O)[C@H]3NC(=O)CCCCCCCCC(C)C)Oc3ccc(cc3Cl)[C@@H](O)[C@@H]3NC(=O)[C@H](NC(=O)[C@@H]4NC(=O)[C@@H](NC2=O)c2cc(cc(O)c2Cl)Oc2cc1ccc2O)c1ccc(O)c(c1)-c1c(O[C@H]2O[C@H](CO)[C@@H](O)[C@H](O)[C@@H]2O)cc(O)cc1[C@@H](C(=O)NCCCN(C)C)NC3=O [Dalbavancin]
MIC ([1]; L 149 E faecalis): 0.06 µg/mL (≈ 0.033 µM) | MIC ([1]; L 562 E faecalis clin. isolate): > 32 µg/mL | 1 Log Kill f24AUC/MBC ([2]; MRSA, q 24 h regimen): 109 | 1 Log Kill f24AUC/MIC ([2]; MRSA, q 24 h regimen): 452 | 1 Log Kill mg/kg/24 h ([2]; MRSA, q 24 h regimen): 45.3 mg/kg/24 h | 2 Log Kill f24AUC/MBC ([2]; MRSA, q 24 h regimen): 125 | 2 Log Kill f24AUC/MIC ([2]; MRSA, q 24 h regimen): 519 | 2 Log Kill mg/kg/24 h ([2]; MRSA, q 24 h regimen): 53.5 mg/kg/24 h | Static Effect f24AUC/MBC ([2]; MRSA, q 24 h regimen): 90 | Static Effect f24AUC/MIC ([2]; MRSA, q 24 h regimen): 374 | Static Effect mg/kg/24 h ([2]; MRSA, q 24 h regimen): 37.7 mg/kg/24 h | 1 Log Kill f24AUC/MBC ([2]; MRSA, q 72 h regimen): 48.8 | 1 Log Kill f24AUC/MIC ([2]; MRSA, q 72 h regimen): 202 | 1 Log Kill mg/kg/24 h ([2]; MRSA, q 72 h regimen): 62 mg/kg/24 h | 2 Log Kill f24AUC/MBC ([2]; MRSA, q 72 h regimen): 70 | 2 Log Kill f24AUC/MIC ([2]; MRSA, q 72 h regimen): 292 | 2 Log Kill mg/kg/24 h ([2]; MRSA, q 72 h regimen): 85 mg/kg/24 h | Static Effect f24AUC/MBC ([2]; MRSA, q 72 h regimen): 35.3 | Static Effect f24AUC/MIC ([2]; MRSA, q 72 h regimen): 147 | Static Effect mg/kg/72 h ([2]; MRSA, q 72 h regimen): 43 mg/kg/72 h | 1 Log Kill f24AUC/MBC [2, 3]: 86.6 ± 27.6 | 1 Log Kill f24AUC/MIC [2, 3]: 268 ± 119 | 1 Log Kill mg/kg/24 h [2, 3]: 43.7 ± 9.5 mg/kg/24 h | 2 Log Kill f24AUC/MBC [2, 3]: 110 ± 42 | 2 Log Kill f24AUC/MIC [2, 3]: 332 ± 131 | 2 Log Kill mg/kg/24 h [2, 3]: 55 ± 14 mg/kg/24 h | Static Effect f24AUC/MBC [2, 3]: 101 ± 72 | Static Effect f24AUC/MIC [2, 3]: 265 ± 143 | Static Effect mg/kg/24 h [2, 3]: 37.1 ± 9.1 mg/kg/24 h | 1 Log Kill f24AUC/MBC [2, 4]: 75.9 ± 45.2 | 1 Log Kill f24AUC/MIC [2, 4]: 213 ± 8.14 | 1 Log Kill mg/kg/24 h [2, 4]: 94 ± 46 mg/kg/24 h | 2 Log Kill f24AUC/MBC [2, 4]: 101 ± 61 | 2 Log Kill f24AUC/MIC [2, 4]: 266 ± 88 | 2 Log Kill mg/kg/24 h [2, 4]: 120 ± 54 mg/kg/24 h | Static Effect f24AUC/MBC [2, 4]: 55 ± 31 | Static Effect f24AUC/MIC [2, 4]: 160 ± 67 | Static Effect mg/kg/72 h [2, 4]: 72 ± 41 mg/kg/72 h | 1 Log Kill f24AUC/MBC ([2]; SA25923, q 24 h regimen): 60 | 1 Log Kill f24AUC/MIC ([2]; SA25923, q 24 h regimen): 250 | 1 Log Kill mg/kg/24 h ([2]; SA25923, q 24 h regimen): 51.2 mg/kg/24 h | 2 Log Kill f24AUC/MBC ([2]; SA25923, q 24 h regimen): 69.3 | 2 Log Kill f24AUC/MIC ([2]; SA25923, q 24 h regimen): 289 | 2 Log Kill mg/kg/24 h ([2]; SA25923, q 24 h regimen): 60 mg/kg/24 h | Static Effect f24AUC/MBC ([2]; SA25923, q 24 h regimen): 52 | Static Effect f24AUC/MIC ([2]; SA25923, q 24 h regimen): 216 | Static Effect mg/kg/24 h ([2]; SA25923, q 24 h regimen): 42.7 mg/kg/24 h | 1 Log Kill f24AUC/MBC ([2]; SA25923, q 72 h regimen): 76.1 | 1 Log Kill f24AUC/MIC ([2]; SA25923, q 72 h regimen): 317 | 1 Log Kill mg/kg/24 h ([2]; SA25923, q 72 h regimen): 185 mg/kg/24 h | 2 Log Kill f24AUC/MBC ([2]; SA25923, q 72 h regimen): 88.1 | 2 Log Kill f24AUC/MIC ([2]; SA25923, q 72 h regimen): 367 | 2 Log Kill mg/kg/24 h ([2]; SA25923, q 72 h regimen): 214 mg/kg/24 h | Static Effect f24AUC/MBC ([2]; SA25923, q 72 h regimen): 66 | Static Effect f24AUC/MIC ([2]; SA25923, q 72 h regimen): 274 | Static Effect mg/kg/72 h ([2]; SA25923, q 72 h regimen): 160 mg/kg/72 h | 1 log kill mg/kg ([2]; SA29213, q 24 h): 267 mg/kg | 1 log kill mg/kg ([2]; SA29213, q 36 h): 36 mg/kg | 2 log kill mg/kg ([2]; SA29213, q 36 h): 122 mg/kg | 1 log kill mg/kg ([2]; SA29213, q 72 h): 31 mg/kg | 2 log kill mg/kg ([2]; SA29213, q 72 h): 128 mg/kg | Static Effect f24AUC/MBC ([2]; SA31005, q 24 h regimen): 242 | Static Effect f24AUC/MIC ([2]; SA31005, q 24 h regimen): 483 | Static Effect mg/kg/24 h ([2]; SA31005, q 24 h regimen): 49.3 mg/kg/24 h | 1 Log Kill f24AUC/MBC ([2]; SA31005, q 72 h regimen): 163 | 1 Log Kill f24AUC/MIC ([2]; SA31005, q 72 h regimen): 325 | 1 Log Kill mg/kg/24 h ([2]; SA31005, q 72 h regimen): 94.6 mg/kg/24 h | 2 Log Kill f24AUC/MBC ([2]; SA31005, q 72 h regimen): 217 | 2 Log Kill f24AUC/MIC ([2]; SA31005, q 72 h regimen): 364 | 2 Log Kill mg/kg/24 h ([2]; SA31005, q 72 h regimen): 127 mg/kg/24 h | Static Effect f24AUC/MBC ([2]; SA31005, q 72 h regimen): 112 | Static Effect f24AUC/MIC ([2]; SA31005, q 72 h regimen): 223
